Measured values: patent US20260248781A1, “SOLUBLE GUANYLATE CYCLASE ACTIVATORS FOR USE IN THE TREATMENT OF HEART FAILURE WITH PRESERVED EJECTION FRACTION IN WOMEN” (BAYER AKTIENGESELLSCHAFT, priority 2022, published 2026)
“And” between values parts separate entries of the source, which are not always exact repeats. Equal values may be shown once.

Assays:
Assay type in all cases: in vivo
[1] = tested on: RenTG/L-NAME-supplemented female rats; assay: RenTG rat model: kidney function by proteinuria (uPCR) in female rats (B-1.4); conditions: 3 mg/kg BID; for uPCR % (normalized to placebo): placebo set as 100%
Method: (§1) Male and female rennin-transgenic rats [TG(mRRen2)27] (RenTG rats) at the age of 8 weeks were used. Rats were randomized in groups with 12-24 rats/group. All groups were then chronically supplemented with L-NAME administrated via drinking water (30-50 mg/l). The L-NAME was dissolved in tap water and stored by room temperature. All groups were treated via oral gavage with either placebo/vehicle consisting of 10% transcutol, 20% cremophor and 70% tap water or different doses of the respective verum. The verum was dissolved in the vehicle and prepared freshly before administration. Study duration with concomitant L-NAME administration and treatment was up to 12 weeks. The baseline blood pressure was measured via tail-cuff method before the start of the treatment and after different time points during the study. Mortality and body weight were assessed on a daily basis. Urine samples were collected via the use of metabolic cages and urine was collected over a period of six hours to quantify proteinuria as correlate of kidney function and different urinary biomarkers for kidney and organ damage. At the end of the study all animals were kept in depth narcotic and bled via aortic puncture and sacrificed by permanent inhaled isoflurane, blood was taken in order to assess plasma parameters, and heart and kidney were weighed and harvested for histopathological evaluation.
Urinary protein to creatinine ratio in the RenTG/L-NAME-supplemented female rats treated with either placebo (set as 100%) or 3 mg/kg example 1 BID or example 3 BID respectively. Data are mean±SEM.

[2] = tested on: RenTG/L-NAME-supplemented male rats; assay: RenTG rat model: survival rate assessment in male rats (B-1.1); conditions: for mortality: placebo 58%
Method: as §1
The survival rate in % of the RenTG/L-NAME-supplemented male rats treated with either placebo, or 1, 3 and 10 mg/kg runcaciguat (example 1) BID was investigated (see table 1).

[3] = tested on: RenTG/L-NAME-supplemented female rats; assay: RenTG rat model: survival rate assessment in female rats (B-1.3); conditions: 3 mg/kg BID, placebo 64.3%
Method: as §1, with “evaluation. […]” for “evaluation.”

[4] = tested on: RenTG/L-NAME-supplemented male rats; assay: RenTG rat model: kidney function by proteinuria (uPCR) in male rats (B-1.2); conditions: for uPCR % (normalized to placebo): placebo set as 100%
Method: as §1
Urinary protein to creatinine ratio in the RenTG/L-NAME-supplemented male rats treated with either placebo (set as 100%) or with 1, 3 and 10 mg/kg example 1 (runcaciguat) BID was investigated (see table is 2).

[5] = tested on: RenTG/L-NAME-supplemented male, female and female OVX rats; assay: RenTG rat model: proteinuria (uPCR) in male, female and female OVX rats, OD dosing (B-1.6); conditions: for Urinary protein to creatinine ratio: 3 mg/kg OD, placebo 100; for reduction of proteinuria: OD
Method: as §1
The most striking differences between male and female were seen on proteinuria. […] In female rats these effects were much more pronounced, and proteinuria was reduced by 88% and by 99% in female rats without OVX and with OVX, respectively.

[6] = tested on: RenTG/L-NAME-supplemented male, female and female OVX rats; assay: RenTG rat model: survival rate in male, female and female ovariectomized (OVX) rats, head-to-head, OD dosing (B-1.5); conditions: for % survival: 3 mg/kg OD
Method: as §1
In male rat 93% of rats survived whereas in female rats all the rats survived in the sGC activator treatment arm (100%). There was no difference in survival rates in female OVX rats compared to non-OVX rats.

In the case of `C[C@H]([C@H](C(=O)Nc1cc([C@@H](CC(=O)O)C2CC2)ccc1Cl)c1ccc(Cl)cc1)C(F)(F)F` [Example 1, (3S)-3-(4-chloro-3-{[(2S,3R)-2-(4-chlorophenyl)-4,4,4-trifluoro-3-methylbutanoyl]amino}phenyl)-3-cyclopropylpropanoic acid], the reduction of proteinuria [1] is reported as 55%, the “uPCR % (normalized to placebo)” value [1] is reported as 44.5% and the “lower survival of male compared to female rats” value ([2]; 3 mg/kg BID, male rats at the point of 64% control survival vs female rats) is reported as 30%. For the same compound, the “% survival” value ([2]; male rats, 1 mg/kg BID p.o.) was 44%, the mortality ([2]; male rats, 1 mg/kg BID p.o.) was 56% and the “survival rate at the point when 64% of the male control animals were still alive” value ([2]; male rats, 3 mg/kg BID) was 70%. The “statistical evaluation of mortality reduction” value ([2]; male rats, 3 mg/kg BID p.o.) was “strong numerical trend”, the “% survival” value ([2]; male rats, 3 mg/kg BID p.o., 3 mg/kg) was 60% and 61% and the mortality ([2]; male rats, 3 mg/kg BID p.o.) was 39%. For the same compound, the “% survival” value ([2]; male rats, 10 mg/kg BID p.o.) was 72%, the “statistical evaluation of mortality reduction” value ([2]; male rats, 10 mg/kg BID p.o.) was “reached statistical significance” and the mortality ([2]; male rats, 10 mg/kg BID p.o.) was 28%. For the same compound, the “effect on survival rates” value ([2]; male rats, 1, 3 and 10 mg/kg BID p.o.) was “dose-dependently increased the survival rates”, the “% survival” value [3] was 100% and the reduction of proteinuria ([4]; 1 mg/kg BID) was 15%. For the same compound, the “uPCR % (normalized to placebo)” value ([4]; 1 mg/kg BID) was 85.4%, the reduction of proteinuria ([4]; 3 mg/kg BID) was 29% and the “statistical evaluation of proteinuria reduction” value ([4]; 3 mg/kg BID) was “statistically significant”. The “uPCR % (normalized to placebo)” value ([4]; 3 mg/kg BID) was 71.1%, the reduction of proteinuria ([4]; 10 mg/kg BID) was 39% and the “statistical evaluation of proteinuria reduction” value ([4]; 10 mg/kg BID) was “statistically significant”. For the same compound, the “uPCR % (normalized to placebo)” value ([4]; 10 mg/kg BID) was 60.6%.

With `CC(C)CN1CCN(c2ccc(-c3ccc(Cl)cc3N3CCC[C@@H](n4ncc(C(=O)O)c4C(F)F)C3)cc2)CC1` [Example 3, 1-{3(R)-1-[4-Chloro-4′-(4-isobutylpiperazin-1-yl)[biphenyl]-2-yl]piperidin-3-yl}-5-(difluoromethyl)-1H-pyrazole-4-carboxylic acid] the reduction of proteinuria [1] was 84%, the “uPCR % (normalized to placebo)” value [1] was 16.4% and the “% survival” value ([3]; 3 mg/kg) was 92,3%. The “Urinary protein to creatinine ratio” value ([5]; female OVX rats) was 1, the reduction of proteinuria ([5]; female rats with OVX) was 99% and the reduction of proteinuria ([5]; female rats without OVX) was 88%. The “Urinary protein to creatinine ratio” value ([5]; female rats) was 12, the “Urinary protein to creatinine ratio” value ([5]; male rats) was 43 and the reduction of proteinuria ([5]; male rats) was 57%. The “% survival” value ([6]; female OVX rats, placebo 40%) was 100%, the “% survival” value ([6]; female rats, placebo 47%) was 100% and the “% survival” value ([6]; male rats, placebo 60%) was 93%. For the same compound, the “survival rate in male rats lower than in female rats” value ([6]; once daily dosing (OD)) was 7% and the “survival rates in female OVX rats compared to non-OVX rats” value ([6]; once daily dosing (OD)) was “no difference”.
